Biological target: human P2X7 (Homo sapiens (Human), UniProt Q99572)
Assay: Human P2X7 functional assay (Ca2+ influx, Fluo-4, FDSS)
Format: cell-based
Settings: antagonistic activity with respect to the human P2X7 receptor; BzATP final concentration 80 microM
Description: The ability of the 5,6,7,8-tetrahydroquinoline and 6,7-dihydro-5H-cyclopenta[b]pyridine derivatives of the formula (I) to inhibit the P2X7 channel was measured by Ca^2+ influx assay and electrophysiology assay described below.
Human P2X7 Functional Assay
The functional activity of compounds was determined by measuring changes in intracellular calcium concentration using a Ca^2+-sensitive fluorescent dye, Fluo-4 (Molecular Probes). The changes in fluorescent signal were monitored by the cell imaging technology by Hamamatsu Photonics's Functional Drug Screening System (FDSS). Increases in intracellular Ca^2+ concentration were readily detected upon activation with BzATP.
HEK293 cells stably expressing human P2X7 (GenBank accession number BC011913) carrying a C-terminal FLAG tag were grown in T225 flasks, in a 5% CO2 humidified incubator to about 80% confluence. Media composition consisted of Dulbecco's Modified Eagle Medium (high glucose), 10% fetal bovine serum ([…]), 100 units/[…] Penicillin, 100 microg/mL Streptomycin and 250 microg/mL Geneticine.
1. Plate-out HEK293-human P2X7 cells (40 microL medium containing 10,000 cells per well) into poly-D-lysine coated 384-well plates (Corning) at 24 h prior to assay.
2. Incubate at 37° C. in 5% CO2.
3. Incubate the plate at 37° C. in 5% CO2 for 1 h.
5. Test compounds were prepared at 100× the test concentration in DMSO by serial dilution with Biomek-FX liquid handling instrument. 33× diluted compound solutions in assay buffer were prepared in intermediate compound plate with Biomek-NX liquid handling instrument. A further 3× dilution occurred in below steps 6 and 7.
6. Add 20 microL of 33× diluted compound solutions into each well and leave the plate for 10 min under the dark at room temperature.
7. Measure activity by FDSS as follows: • Set the assay plate on the stacker of FDSS. • Start the detection of fluorescence intensity at 540 nm by 480 nm exicitation. • After 30 seconds, add 20 microL of assay buffer containing 240 microM BzATP (final concentration 80 microM).
IC50 values for compounds of the present invention were determined from 7-point dose-response studies. Curves were generated using the average of duplicate wells for each data point. Finally, the IC50 values are calculated with the best-fit dose curve determined by XLfit (ID Business Solutions Ltd.).

Chain of human P2X7 (Q99572 whole entry): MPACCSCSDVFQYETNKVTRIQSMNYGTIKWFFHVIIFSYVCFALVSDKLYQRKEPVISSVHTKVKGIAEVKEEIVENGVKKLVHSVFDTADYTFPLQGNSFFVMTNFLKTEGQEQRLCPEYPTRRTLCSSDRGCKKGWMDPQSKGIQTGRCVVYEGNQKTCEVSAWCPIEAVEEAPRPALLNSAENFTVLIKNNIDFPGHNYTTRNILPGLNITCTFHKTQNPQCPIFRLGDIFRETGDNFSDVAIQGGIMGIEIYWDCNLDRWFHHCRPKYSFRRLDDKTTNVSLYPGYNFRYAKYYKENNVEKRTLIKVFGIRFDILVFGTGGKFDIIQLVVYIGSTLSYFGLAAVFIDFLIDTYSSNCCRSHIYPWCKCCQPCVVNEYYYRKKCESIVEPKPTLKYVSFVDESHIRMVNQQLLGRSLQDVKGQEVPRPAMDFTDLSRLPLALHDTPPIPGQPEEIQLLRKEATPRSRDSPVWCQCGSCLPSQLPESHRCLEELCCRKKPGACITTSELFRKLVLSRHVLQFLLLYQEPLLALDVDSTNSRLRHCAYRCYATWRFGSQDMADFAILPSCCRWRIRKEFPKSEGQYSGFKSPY

| Structure (SMILES) | IC50 [nM] |
| --- | --- |
| Cc1cc(Cl)cc(Cl)c1CNC(=O)[C@H]1C[C@@H](O)c2ncccc21 [Example 98, (5S,7R)-N-(2,4-dichloro-6-methylbenzyl)-7-hy-droxy-6,7-dihydro-5H-cyclopenta[b]pyridin-5-carboxamide] | 101 to 300 |
| O=C(NCc1c(F)cccc1F)[C@]1(F)CC[C@H](O)c2ncccc21 [Example 217, (5S,8S)-N-(2,6-difluorobenzyl)-5-fluoro-8-hydroxy-5,6,7,8-tetrahydroquinoline-5-carboxamide] | 101 to 300 |
| O=C(NCCOc1ccccc1)[C@]1(F)CC[C@H](O)c2ncccc21 [Example 228, (5S,8S)-5-fluoro-8-hydroxy-N-(2-phenoxyethyl)-5,6,7,8-tetrahydroquinoline-5-carboxamide] | 1000 to 3000 |
| O=C(NCc1nc(-c2ccc(Cl)cc2)cs1)[C@]1(F)CC[C@H](O)c2ncccc21 [Example 213, (5S,8S)-N-((4-(4-chlorophenyl)thiazol-2-yl)methyl)-5-fluoro-8-hydroxy-5,6,7,8-tetrahydroquinoline-5-carboxamide] | 101 to 300 |
| O=C(NCc1cc(Cl)ccc1Cl)[C@]1(F)CC[C@H](O)c2ncccc21 [Example 173, (5S,8S)-N-(2,5-dichlorobenzyl)-5-fluoro-8-hydroxy-5,6,7,8-tetrahydroquinoline-5-carboxamide] | 50 to 100 |
| O=C(NCc1ncc(C(F)(F)F)cc1Cl)[C@]1(F)CC[C@H](O)c2ncccc21 [Example 194, (5S,8S)-N-((3-chloro-5-(trifluoromethyl)pyridin-2-yl)methyl)-5-fluoro-8-hydroxy-5,6,7,8-tetrahydroquinoline-5-carboxamide] | < 50 |
| CN(CCO)C[C@@]1(O)CC[C@](F)(C(=O)NCc2ccc(Cl)cc2Cl)c2cccnc21 [Example 278, (5R,8S)-N-(2,4-dichlorobenzyl)-5-fluoro-8-hydroxy-8-(((2-hydroxyethyl) (methyl)amino)methyl)-5,6,7,8-tetrahydroquinoline-5-carboxamide] | 1000 to 3000 |
| O=C(NCc1c(Cl)cccc1Cl)[C@@]1(F)CC[C@@H](O)c2ncccc21 [Example 138, (5R,8R)-N-(2,6-dichlorobenzyl)-5-fluoro-8-hydroxy-5,6,7,8-tetrahydroquinoline-5-carboxamide] | 101 to 300 |
| O=C(NCc1ccc(F)c(F)c1)[C@]1(F)CC[C@H](O)c2ncccc21 [Example 202, (5S,8S)-N-(3,4-difluorobenzyl)-5-fluoro-8-hydroxy-5,6,7,8-tetrahydroquinoline-5-carboxamide] | 50 to 100 |
| Cc1cnc2c(c1)[C@](F)(C(=O)NCc1ccc(Cl)cc1Cl)CC[C@@H]2O [Example 243, (5S,8S)-N-(2,4-dichlorobenzyl)-5-fluoro-8-hydroxy-3-methyl-5,6,7,8-tetrahydroquinoline-5-carboxamide] | 301 to 1000 |
| O=C(NCc1ccc(Cl)cc1F)[C@H]1CC[C@@H](O)c2ncccc21 [Example 96, (5S,8R)-N-(4-chloro-2-fluorobenzyl)-8-hydroxy-5,6,7,8-tetrahydroquinoline-5-carboxamide] | 1000 to 3000 |
| O=C(NCc1ccc(Cl)cc1Cl)[C@@]1(F)CC[C@@H](OCCO)c2ncccc21 [Example 348, (5R,8R)-N-(2,4-dtchlorobenzyl)-5-fluoro-8-(2-hydroxyethoxy)-5.6,7,8-tetrahydroquinoline-5-carboxamide] | 101 to 300 |
| O=C(NCc1cccc(Cl)c1Cl)[C@@]1(F)CC[C@H](O)c2ncccc21 [Example 120, (5R,8S)-N-(2,3-dichlorobenzyl)-5-fluoro-8-hydroxy-5,6,7,8-tetrahydroquinoline-5-carboxamide] | 1000 to 3000 |
| Cc1ccc(CNC(=O)[C@]2(F)CC[C@@H](O)c3ncccc32)c(Cl)c1 [Example 125, (5S,8R)-N-(2-chloro-4-methylbenzyl)-5-fluoro-8-hydroxy-5,6,7,8-hydroquinoline-5-carboxamide] | 101 to 300 |
| O=C(NCc1c(Cl)cc(C(F)(F)F)cc1Cl)[C@@]1(F)CC[C@H](O)c2ncccc21 [Example 112, (5R,8S)-N-(2,6-dichloro-4-(trifluoromethyl)benzyl)-5-fluoro-8-hydroxy-5,6,7,8-tetrahydroquinoline-5-carboxamide] | 101 to 300 |
| O=C1CCC(C(=O)NCC2CCCCCC2)c2cccnc21 (stereo not drawn) [Example 5, N-(cycloheptylmethyl)-8-oxo-5,6,7,8-tetrahydro-quinoline-5-carboxamide] | 1000 to 3000 |
| O=C(NCc1ccccc1F)[C@]1(F)CC[C@H](O)c2ncccc21 [Example 223, (5S,8S)-5-fluoro-N-(2-fluorobenzyl)-8-hydroxy-5,6,7,8-tetrahydroquinoline-5-carboxamide] | 301 to 1000 |
| O=C(NCc1c(F)cc(F)cc1F)[C@@H]1CC[C@H](O)c2ncccc21 [Example 73, (5R,8S)-8-hydroxy-N-(2,4,6-trifluorobenzyl)-5,6,7,8-tetrahydroquinoline-5-carboxamide] | 101 to 300 |
| O=C(NCc1ccc(Br)cc1F)[C@H]1CC[C@H](O)c2ncccc21 [Example 79, (5S,8S)-N-(4-bromo-2-fluorobenzyl)-8-hydroxy-5,6,7,8-tetrahydroquinoline-5-carboxamide] | 301 to 1000 |
| Cc1cc(Cl)cc(Cl)c1CNC(=O)C1(O)CCC(=O)c2ncccc21 (stereo not drawn) [Example 15, N-(2,4-dichloro-6-methylbenzyl)-5-hydroxy-8-oxo-5,6,7,8-tetrahydro-quinoline-5-carboxamide] | 301 to 1000 |
| C[C@@H](NC(=O)[C@]1(F)CC[C@@H](O)c2ncccc21)c1ccc(Cl)cc1Cl [Example 119, (5S-8R)-N-((R)-1-(2,4-dichlorophenyl)ethyl)-5-fluoro-8-hydroxy-5,6,7,8-tetrahydroquinoline-5-carboxamide] | < 50 |
| C[C@H](NC(=O)[C@]1(F)CC[C@](C)(O)c2ncccc21)c1ccc(F)cc1Cl [Example 271, (5S,8S)-N-((S)-1-(2-chloro-4-fluorophenyl)ethyl)-5-fluoro-8-hydroxy-8-methyl-5,6,7,8-tetrahydroquinoline-5-carboxamide] | 301 to 1000 |
| O=C(NCc1ccc(Cl)cc1Cl)[C@H]1CC[C@H](O)c2ncccc21 [Example 65, (5S,8S)-N-(2,4-dichloro-benzyl)-8-hydroxy-5,6,7,8-tetrahydroquinoline-5-carboxamide] | 301 to 1000 |
| O=C(N[C@H]1CCCc2ccccc21)[C@]1(F)CC[C@H](O)c2ncccc21 [Example 218, (5S,8S)-5-fluoro-8-hydroxy-N-((S)-1,2,3,4-tetrahydronaphthalen-1-yl)-5,6,7,8-tetrahydroquinoline-5-carboxamide] | 301 to 1000 |
| O=C(NCc1cccc(Cl)c1Cl)[C@@]1(F)CC[C@H](F)c2ncccc21 [Example 354, (5R,8S)-N-(2,3-dichlorobenzyl)-5.8-difluoro-5,6,7,8-tetrahydroquinaline-5-carboxamide] | 50 to 100 |
| O=C(NC1CC1c1ccc(Cl)cc1Cl)[C@]1(F)CC[C@@](O)(CO)c2ncccc21 (stereo partly drawn) [Example 331, (5S,8S)-N-((trans)-2-(2,4-dichlorophenyl)cyclopropyl)-5-fluoro-8-hydroxy-8-(hydroxymethyl)-5,6,7,8-tetrahydroquinoline-5-carboxamide] | 50 to 100 |
| O=C1CCC(C(=O)NCc2c(Cl)cc(Cl)cc2CO)c2cccnc21 (stereo not drawn) [Example 4, N-(2,4-dichloro-6-(hydroxy-methyl)benzyl)-8-oxo-5,6,7,8-tetrahydroquinoline-5-carboxamide] | < 50 |
